Data taken from the supplement of paper PMC11061612.

What was measured:
Assay in all cases: Bliss excess, mean over the matrix (fraction); higher = more synergy
[1] = test system: KARPAS-45 (T-Lymphoblastic Leukemia)
Summary of the method: (§1)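 Bliss excess equals the observed combination effect minus the expected value EA + EB − EA·EB, where EA and EB are the effects of each agent alone. Combination Emax is the second-highest inhibition within the matrix. Inhibition was scaled from CellTiter-Glo 2.0 luminescence, with 0 set by vehicle wells and 1 by blank wells, after 72 hours of two-drug dosing of cells plated in 1536-well plates.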

[2] = test system: SU-DHL-8 (B-Cell Non-Hodgkin's Lymphoma)
Summary of the method: as §1

[3] = test system: KCL-22 (Chronic Myelogenous Leukemia)
Summary of the method: as §1

[4] = test system: EVSA-T (Breast Carcinoma)
Summary of the method: as §1

[5] = test system: P12-ICHIKAWA (T-Lymphoblastic Leukemia)
Summary of the method: as §1

[6] = test system: COLO-678 (Colorectal Carcinoma)
Summary of the method: as §1

[7] = test system: HDQ-P1 (Breast Carcinoma)
Summary of the method: as §1

[8] = test system: DiFi (Colorectal Carcinoma)
Summary of the method: as §1

NCI-H2818 (Mesothelioma) = test system: NCI-H2818 (Mesothelioma)
Summary of the method: as §1

[9] = test system: MFM-223 (Breast Carcinoma)
Summary of the method: as §1

[10] = test system: SW837 (Colorectal Carcinoma)
Summary of the method: as §1

MEL-JUSO (Melanoma) = test system: MEL-JUSO (Melanoma)
Summary of the method: as §1

[11] = test system: TE-6 (Esophageal Squamous Cell Carcinoma)
Summary of the method: as §1

[12] = test system: BL-41 (Burkitt's Lymphoma)
Summary of the method: as §1

[13] = test system: MKN28 (Gastric Carcinoma)
Summary of the method: as §1

WM-115 (Melanoma) = test system: WM-115 (Melanoma)
Summary of the method: as §1

[14] = test system: CAMA-1 (Breast Carcinoma)
Summary of the method: as §1

[15] = test system: SW1417 (Colorectal Carcinoma)
Summary of the method: as §1

[16] = test system: L-540 (Hodgkin's Lymphoma)
Summary of the method: as §1

| SMILES | Bliss excess [1] | Bliss excess [2] | Bliss excess [3] | Bliss excess [4] | Bliss excess [5] | Bliss excess [6] | Bliss excess [7] | Bliss excess [8] | Bliss excess (NCI-H2818 (Mesothelioma)) | Bliss excess [9] | Bliss excess [10] | Bliss excess (MEL-JUSO (Melanoma)) | Bliss excess [11] | Bliss excess [12] | Bliss excess [13] | Bliss excess (WM-115 (Melanoma)) | Bliss excess [14] | Bliss excess [15] | Bliss excess [16] |
| --- | --- | --- | --- | --- | --- | --- | --- | --- | --- | --- | --- | --- | --- | --- | --- | --- | --- | --- | --- |
| COc1nnc2ccc(N3CCC(c4ccc(OCCN5CCN(C)C(=O)[C@H]5C)cc4)CC3)nn12 [AZD5153] + C=CCn1c(=O)c2cnc(Nc3ccc(N4CCN(C)CC4)cc3)nc2n1-c1cccc(C(C)(C)O)n1 [AZD1775] (first compound max 1 µM, partner max 1 µM) | -0.0088 | 0.0014 | -0.0578 | -0.0108 | 0.0148 | -0.0287 | -0.041 | -0.0761 | 0.0033 | -0.0679 | -0.0653 | 0.0131 | -0.0166 | -0.0454 | -0.0617 | -0.11 | -0.0121 | -0.0254 | -0.0433 |
| COc1nnc2ccc(N3CCC(c4ccc(OCCN5CCN(C)C(=O)[C@H]5C)cc4)CC3)nn12 [AZD5153] + CC1(C)CCC(CN2CCN(c3ccc(C(=O)NS(=O)(=O)c4ccc(NCC5CCOCC5)c([N+](=O)[O-])c4)c(Oc4cnc5[nH]ccc5c4)c3)CC2)=C(c2ccc(Cl)cc2)C1 [Venetoclax] (first compound max 1 µM, 7x7, partner max 1 µM) | 0.0433 | -0.0486 | -0.0343 | -0.0008 | -0.0389 | -0.121 | -0.0307 | 0.0054 | -0.0487 | -0.0295 | -0.0514 | -0.0547 | -0.103 | -0.0551 | -0.0251 | -0.0717 | -0.0564 | -0.0485 | -0.0012 |
| COc1nnc2ccc(N3CCC(c4ccc(OCCN5CCN(C)C(=O)[C@H]5C)cc4)CC3)nn12 [AZD5153] + CCN(CCO)CCCOc1ccc2c(Nc3cc(CC(=O)Nc4cccc(F)c4)[nH]n3)ncnc2c1 [AZD2811] (first compound max 1 µM, 7x7, partner max 1 µM) | -0.0171 | 0.107 | 0.0425 | 0.0047 | 0.0024 | -0.0409 | -0.008 | -0.068 | -0.0083 | -0.0622 | -0.0663 | -0.0003 | -0.0501 | -0.0369 | -0.0244 | -0.0814 | -0.0311 | -0.0301 | -0.0477 |
| COc1nnc2ccc(N3CCC(c4ccc(OCCN5CCN(C)C(=O)[C@H]5C)cc4)CC3)nn12 [AZD5153] + CN(CC[C@H](CSC1=CC=CC=C1)NC2=C(C=C(C=C2)S(=O)(=O)NC(=O)C3=CC=C(C=C3)N4CCC(CC4)[C@H](C5=CC=CC=C5C6=CC=C(C=C6)Cl)O)S(=O)(=O)C(F)(F)F)CCO [AZD4320] (first compound max 1 µM, 7x7, partner max 1 µM) | 0.0274 | -0.128 | 0.078 | 0.0426 | 0.0283 | 0.0322 | 0.0844 | 0.0671 | – | -0.0065 | – | 0.0122 | -0.0157 | – | – | – | – | – | – |
| COc1nnc2ccc(N3CCC(c4ccc(OCCN5CCN(C)C(=O)[C@H]5C)cc4)CC3)nn12 [AZD5153] + C[C@@H]1COCCN1C2=NC(=NC(=C2)C3(CC3)[S@](=N)(=O)C)C4=C5C=CNC5=NC=C4 [AZD6738] (first compound max 1 µM, 7x7, partner max 10 µM) | -0.0191 | 0.0042 | -0.0188 | 0.0026 | 0.055 | 0.0502 | 0.0527 | 0.0524 | -0.0383 | -0.0011 | -0.0066 | 0.0624 | -0.0503 | -0.0562 | -0.0072 | -0.0276 | -0.0091 | 0.0052 | -0.0623 |
| COc1nnc2ccc(N3CCC(c4ccc(OCCN5CCN(C)C(=O)[C@H]5C)cc4)CC3)nn12 [AZD5153] + Cc1c2c(nn1C)CSCc1cc(n(C)n1)CSc1cc(c3ccccc3c1)OCCCc1c(C(=O)O)n(C)c3c-2c(Cl)ccc13 [AZD5991] (first compound max 1 µM, 7x7, partner max 1 µM) | 0.0139 | -0.0131 | -0.0633 | 0.003 | 0.0813 | -0.0476 | -0.0667 | -0.0066 | 0.0183 | -0.0258 | -0.0411 | -0.0507 | -0.0701 | -0.025 | -0.0235 | -0.0256 | 0.0283 | -0.0252 | 0.0062 |
| COc1nnc2ccc(N3CCC(c4ccc(OCCN5CCN(C)C(=O)[C@H]5C)cc4)CC3)nn12 [AZD5153] + Cn1cnc2c(F)c(Nc3ccc(Br)cc3Cl)c(C(=O)NOCCO)cc21 [Selumetinib] (first compound max 1 µM, 7x7, partner max 10 µM) | 0.0362 | 0.0473 | 0.0841 | -0.031 | 0.0746 | -0.0382 | -0.0697 | -0.0011 | -0.0031 | -0.0299 | -0.0187 | 0.0889 | -0.0216 | -0.0526 | -0.0169 | 0.15 | 0.0022 | 0.0496 | -0.0441 |
| NC1(C(=O)N[C@@H](CCO)c2ccc(Cl)cc2)CCN(c2ncnc3[nH]ccc23)CC1 [Capivasertib] + CC(=O)c1c(C)c2cnc(Nc3ccc(N4CCNCC4)cn3)nc2n(C2CCCC2)c1=O [Palbociclib] (first compound max 10 µM, 7x7, partner max 10 µM) | 0.0327 | 0.0646 | 0.0438 | 0.0168 | -0.0096 | -0.0295 | -0.0092 | -0.0394 | -0.0025 | 0.0091 | -0.0531 | -0.0137 | -0.0195 | -0.0275 | -0.0459 | -0.0469 | 0.052 | 0.0067 | -0.0243 |
| NC1(C(=O)N[C@@H](CCO)c2ccc(Cl)cc2)CCN(c2ncnc3[nH]ccc23)CC1 [Capivasertib] + CC(C)n1c(=O)n(C)c2cnc3cc(F)c(-c4ccc(OCCCN5CCCCC5)nc4)cc3c21 [AZD1390] (first compound max 10 µM, 7x7, partner max 0.3 µM) | -0.0374 | -0.0156 | -0.0116 | -0.0326 | -0.018 | -0.0754 | -0.0442 | -0.0436 | -0.0447 | -0.0098 | -0.0461 | -0.0784 | -0.134 | -0.193 | -0.0634 | -0.0368 | -0.0558 | -0.0394 | 0.0167 |
| NC1(C(=O)N[C@@H](CCO)c2ccc(Cl)cc2)CCN(c2ncnc3[nH]ccc23)CC1 [Capivasertib] + CCN(CCO)CCCOc1ccc2c(Nc3cc(CC(=O)Nc4cccc(F)c4)[nH]n3)ncnc2c1 [AZD2811] (first compound max 10 µM, 7x7, partner max 1 µM) | -0.0426 | 0.0078 | 0.0544 | 0.0219 | -0.014 | -0.0218 | -0.0077 | -0.0475 | -0.0676 | -0.0072 | -0.0646 | -0.0083 | -0.0003 | -0.123 | 0.0119 | -0.0223 | 0.0051 | -0.0478 | 0.0547 |
| NC1(C(=O)N[C@@H](CCO)c2ccc(Cl)cc2)CCN(c2ncnc3[nH]ccc23)CC1 [Capivasertib] + COc1nnc2ccc(N3CCC(c4ccc(OCCN5CCN(C)C(=O)[C@H]5C)cc4)CC3)nn12 [AZD5153] (first compound max 10 µM, 7x7, partner max 1 µM) | 0.0133 | 0.0407 | 0.0441 | -0.033 | 0.0553 | -0.0688 | 0.0651 | -0.056 | 0.0025 | -0.0302 | -0.0301 | -0.0049 | -0.0708 | 0.036 | -0.0075 | 0.0031 | 0.106 | -0.0135 | -0.0794 |
| NC1(C(=O)N[C@@H](CCO)c2ccc(Cl)cc2)CCN(c2ncnc3[nH]ccc23)CC1 [Capivasertib] + C[C@@H]1COCCN1C2=NC(=NC(=C2)C3(CC3)[S@](=N)(=O)C)C4=C5C=CNC5=NC=C4 [AZD6738] (first compound max 10 µM, 7x7, partner max 10 µM) | -0.0238 | -0.0045 | 0.0044 | 0.0185 | 0.0043 | -0.051 | -0.0178 | -0.122 | -0.0315 | -0.0626 | -0.0862 | 0.0083 | -0.0476 | -0.0552 | -0.0459 | -0.0502 | -0.0149 | -0.0282 | -0.0059 |
| NC1(C(=O)N[C@@H](CCO)c2ccc(Cl)cc2)CCN(c2ncnc3[nH]ccc23)CC1 [Capivasertib] + Cn1cnc2c(F)c(Nc3ccc(Br)cc3Cl)c(C(=O)NOCCO)cc21 [Selumetinib] (first compound max 10 µM, 7x7, partner max 10 µM) | 0.0796 | -0.0214 | 0.117 | -0.0157 | 0.15 | -0.0398 | -0.0046 | 0.0049 | -0.0014 | 0.0276 | -0.0357 | 0.0315 | 0.0032 | 0.0106 | -0.05 | 0.071 | 0.0187 | 0.0152 | -0.0345 |
| CC(=O)c1c(C)c2cnc(Nc3ccc(N4CCNCC4)cn3)nc2n(C2CCCC2)c1=O [Palbociclib] + CN(CC[C@H](CSC1=CC=CC=C1)NC2=C(C=C(C=C2)S(=O)(=O)NC(=O)C3=CC=C(C=C3)N4CCC(CC4)[C@H](C5=CC=CC=C5C6=CC=C(C=C6)Cl)O)S(=O)(=O)C(F)(F)F)CCO [AZD4320] (first compound max 10 µM, 7x7, partner max 1 µM) | -0.0035 | -0.106 | -0.0299 | -0.0631 | -0.0298 | -0.0747 | -0.0735 | -0.0038 | – | -0.0021 | – | -0.099 | -0.0596 | – | – | – | – | – | – |
| C[C@@H](c1ccc2nccn2c1)n1nnc2ncc(-c3cnn(C)c3)nc21 [Savolitinib] + CN(CC[C@H](CSC1=CC=CC=C1)NC2=C(C=C(C=C2)S(=O)(=O)NC(=O)C3=CC=C(C=C3)N4CCC(CC4)[C@H](C5=CC=CC=C5C6=CC=C(C=C6)Cl)O)S(=O)(=O)C(F)(F)F)CCO [AZD4320] (first compound max 1 µM, 7x7, partner max 1 µM) | -0.0289 | 0.0282 | -0.0201 | 0.0099 | -0.0097 | -0.0766 | -0.0432 | -0.0713 | – | -0.0726 | – | -0.0487 | -0.0312 | – | – | – | – | – | – |
